This is an account of results in patent publication US20250034216A1, “STEREOSELECTIVE COVALENT LIGANDS FOR ONCOGENIC AND IMMUNOLOGICAL PROTEINS” (The Scripps Research Institute, priority 2021, published 2025).

Each structure is given as a SMILES string.

Assay in all cases: IA-DTB cysteine engagement
Assay type in all cases: binding

For one assay, the target named is T1, CDKAL1_C556 (Homo sapiens, UniProt Q5VV42).
T1 construct: endogenous in cells; host or cells: 22Rv1
T1 sequence (Q5VV42 1-579): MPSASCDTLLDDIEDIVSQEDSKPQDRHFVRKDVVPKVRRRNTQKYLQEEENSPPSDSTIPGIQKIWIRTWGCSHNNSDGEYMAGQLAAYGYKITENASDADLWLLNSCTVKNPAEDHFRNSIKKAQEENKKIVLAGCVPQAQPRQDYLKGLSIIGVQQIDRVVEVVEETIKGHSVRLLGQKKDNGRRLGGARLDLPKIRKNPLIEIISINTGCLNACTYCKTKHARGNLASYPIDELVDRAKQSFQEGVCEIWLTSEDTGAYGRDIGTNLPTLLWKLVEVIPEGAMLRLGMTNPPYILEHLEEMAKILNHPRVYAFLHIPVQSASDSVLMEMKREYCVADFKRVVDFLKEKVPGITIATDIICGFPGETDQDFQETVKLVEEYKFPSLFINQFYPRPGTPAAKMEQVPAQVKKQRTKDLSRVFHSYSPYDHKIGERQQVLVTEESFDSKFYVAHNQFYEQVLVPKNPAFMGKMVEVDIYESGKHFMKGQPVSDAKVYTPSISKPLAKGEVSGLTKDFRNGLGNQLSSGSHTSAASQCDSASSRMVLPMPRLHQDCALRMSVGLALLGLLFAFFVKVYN
The settings on record: 22Rv1 cells, relative to DMSO; for % engagement CDKAL1_556: 5 μM probe, 1 h (FIG. 5B); for % engagement CDKAL1_C556: 20 μM probe, 1 h. In a few lines: (§1)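 First, cells are exposed to electrophilic probes in situ. Next, lysates are labeled with IA-DTB (1 h, ambient temperature), reduced, alkylated and trypsin-digested. Then, IA-DTB peptides are enriched on streptavidin, TMT-labeled and analyzed, with ratios taken against DMSO channels.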

Another assay has as its target T2, DCUN1D4_C219 (Homo sapiens, UniProt Q92564).
T2 construct: endogenous in cells; host or cells: 22Rv1
T2 sequence (Q92564 1-292): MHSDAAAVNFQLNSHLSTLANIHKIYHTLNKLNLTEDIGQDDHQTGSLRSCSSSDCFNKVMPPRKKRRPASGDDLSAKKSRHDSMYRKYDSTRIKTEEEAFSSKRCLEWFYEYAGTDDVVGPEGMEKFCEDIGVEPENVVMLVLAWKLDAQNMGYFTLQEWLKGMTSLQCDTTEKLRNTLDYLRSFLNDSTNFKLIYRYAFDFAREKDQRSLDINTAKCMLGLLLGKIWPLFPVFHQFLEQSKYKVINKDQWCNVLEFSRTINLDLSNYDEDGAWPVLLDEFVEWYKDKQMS
The conditions noted are these: 22Rv1 cells, 20 μM probe, 1 h, relative to DMSO. In short, it runs like this:
as §1

A further assay has as its target T3, HSD11B2_C264 (Homo sapiens, UniProt P80365).
T3 construct: endogenous in cells; host or cells: 22Rv1
T3 sequence (P80365 1-405): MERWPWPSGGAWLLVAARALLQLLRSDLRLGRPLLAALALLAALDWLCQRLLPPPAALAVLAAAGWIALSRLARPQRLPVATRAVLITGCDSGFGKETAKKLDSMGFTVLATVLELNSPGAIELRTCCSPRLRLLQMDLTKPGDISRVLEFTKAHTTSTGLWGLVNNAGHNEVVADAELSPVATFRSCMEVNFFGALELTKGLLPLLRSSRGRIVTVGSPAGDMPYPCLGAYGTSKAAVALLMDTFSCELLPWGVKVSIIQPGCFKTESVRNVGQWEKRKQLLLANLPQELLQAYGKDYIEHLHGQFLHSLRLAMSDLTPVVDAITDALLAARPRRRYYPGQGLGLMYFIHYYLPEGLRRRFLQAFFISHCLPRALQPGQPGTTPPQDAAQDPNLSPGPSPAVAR
The conditions noted are these: 22Rv1 cells, 20 μM probe, 1 h, relative to DMSO. In short, it runs like this: as §1

As to `CC#CC(=O)N1C[C@H](c2ccc(Br)cc2)[C@@H]1C(=O)Nc1cccc2cccnc12` [MY-45B, (2R,3S)-3-(4-bromophenyl)-1-(but-2-ynoyl)-N-(quinolin-8-yl)azetidine-2-carboxamide], the “% engagement CDKAL1_556” value on CDKAL1_C556 worked out at 67.00%.
For `C=CC(=O)N1C[C@H](c2ccc(Br)cc2)[C@@H]1C(=O)Nc1cccc2cccnc12` [MY-1B, (2R,3S)-1-acryloyl-3-(4-bromophenyl)-N-(quinolin-8-yl)azetidine-2-carboxamide], the “% engagement DCUN1D4_C219” value at DCUN1D4_C219 was found to be 82.5%. Besides, on CDKAL1_C556, the “% engagement CDKAL1_556” value was 79.33% and the “% engagement CDKAL1_C556” value is given as 91%. Moreover, on HSD11B2_C264, the “% engagement HSD11B2_C264” value was 22%.
With `C=CC(=O)N1C[C@H](c2ccc(Br)cc2)[C@H]1C(=O)Nc1cccc2cccnc12` [MY-3B, (2S,3S)-1-acryloyl-3-(4-bromophenyl)-N-(quinolin-8-yl)azetidine-2-carboxamide], the “% engagement DCUN1D4_C219” value on DCUN1D4_C219 was −17%. In addition, on CDKAL1_C556, the “% engagement CDKAL1_C556” value is recorded as 89%. Besides, the “% engagement HSD11B2_C264” value at HSD11B2_C264 was 90.25%.
Consider `C=CC(=O)N1C[C@H](c2ccc(Br)cc2)[C@H]1C(=O)Nc1cccc2cccnc12` [MY-3A, (2S,3S)-1-acryloyl-3-(4-bromophenyl)-N-(quinolin-8-yl)azetidine-2-carboxamide], for which the “% engagement DCUN1D4_C219” value at DCUN1D4_C219 came out at 33.5%. Also, on CDKAL1_C556, the “% engagement CDKAL1_C556” value was 88.5%. In addition, the “% engagement HSD11B2_C264” value on HSD11B2_C264 turned out to be 23.5%.
As for `C=CC(=O)N1C[C@@H](c2ccc(Br)cc2)[C@H]1C(=O)Nc1cccc2cccnc12` [MY-1A, (2S,3R)-1-acryloyl-3-(4-bromophenyl)-N-(quinolin-8-yl)azetidine-2-carboxamide], the “% engagement DCUN1D4_C219” value at DCUN1D4_C219 was found to be 45.5%. At CDKAL1_C556, the “% engagement CDKAL1_C556” value stood at 59.5%. Besides, the “% engagement HSD11B2_C264” value on HSD11B2_C264 was 30.5%.
